Results from patent US20160376240A1, “6 Phenyl or 6 Pyridin 3 YL Indazole Derivatives and Methods of Use” (ABBVIE INC., priority 2014, published 2016).

Target: T1, TrkA (Homo sapiens, UniProt P04629)
T1 construct: purchased Invitrogen PV3144
Test: TrkA kinase inhibition, HTRF assay
Assay type: biochemical
Settings: LCK peptide substrate 125 nM, TrkA 2-10 nM pre-incubated with ATP 200 μM
Protocol: TrkA, TrkB, and TrkC enzymes were obtained from Invitrogen (as catalog numbers PV3144, PV3616, and PV3617, respectively). The ability of a compound to inhibit the enzymatic activity of the TrkA, TrkB, and TrkC enzymes was determined in separate assays. Enzyme activity was measured in an HTRF® (homogeneous time resolved fluorescence) assay, which detects enzymatic phosphorylation of a biotinylated synthetic peptide substrate (an LCK peptide analog, biotin-ahx-GAEEEIYAAFFA, from Genemed Synthesis). Phosphorylation is assessed by HTRF® in the presence of an anti-phosphotyrosine antibody conjugated to Eu^3+ cryptate (Cisbio) as donor fluorophore, and streptavidin conjugated to allophycocyanin (ProZyme) as acceptor fluorophore. The HTRF® signal was detected at two different wavelengths (620 nm and 665 nm) which were used to calculate the fluorescence ratio.
Each enzyme was titrated to a concentration optimized to ensure accurate measurement of the initial reaction rate. To allow the Trk enzymes to undergo activation and auto-phosphorylation, a 20 minute pre-incubation with ATP was carried out (at twice the final targeted enzyme and ATP concentration) prior to addition of test compound and the peptide substrate.
TrkA in vitro assays were performed by pre-incubating TrkA (2-10 nM) with ATP (200 μM) for 20 minutes at ambient temperature in 50 mM HEPES pH 7.4, 10 mM MgCl2, 2 mM MnCl2, 100 μM Na3VO4, 1 mM dithiothreitol, 0.01% BSA (bovine serum albumin). Then, to the activated Trk enzyme mixture was added the test compound in 2% dimethyl sulfoxide. After 10 minutes, the peptide substrate (125 nM) was added. After 1 hour, enzyme reactions were terminated by addition of equal reaction volumes of detection/stop reagent (containing 0.2 μg/mL anti-phosphotyrosine monoclonal antibody labeled with europium from Cisbio (catalog# PT66-K), and 4 μg/mL PhycoLink® Streptavidin-Allophycocyanin conjugate from ProZyme (catalog# PJ25S) in 60 mM EDTA in 40 mM HEPES pH 7.4, 480 mM KF, 0.01% Tween® 20 and 0.1% BSA bovine serum albumin) Reaction plates were stored at 4° C. overnight before reading the fluorescence ratio signal on a PerkinElmer EnVision™ fluorescence detector. Individual reaction wells were stopped at time points to obtain reaction rates. The test inhibitor compounds were assayed in duplicate, at half-log serial dilutions over a range of concentrations (e.g. starting at 50 μM or 5 μM as the high compound concentration). The percent Trk enzyme inhibition was calculated from the initial rates of the inhibited reactions relative to the uninhibited control. IC50 values were calculated by fitting the inhibition percent to the concentration of inhibitor [I] in the assay in equation 1 below, to solve for the IC50.
Inhibition %=100[I]/([I]+[IC50]) equation 1

T1 sequence (P04629 33-796): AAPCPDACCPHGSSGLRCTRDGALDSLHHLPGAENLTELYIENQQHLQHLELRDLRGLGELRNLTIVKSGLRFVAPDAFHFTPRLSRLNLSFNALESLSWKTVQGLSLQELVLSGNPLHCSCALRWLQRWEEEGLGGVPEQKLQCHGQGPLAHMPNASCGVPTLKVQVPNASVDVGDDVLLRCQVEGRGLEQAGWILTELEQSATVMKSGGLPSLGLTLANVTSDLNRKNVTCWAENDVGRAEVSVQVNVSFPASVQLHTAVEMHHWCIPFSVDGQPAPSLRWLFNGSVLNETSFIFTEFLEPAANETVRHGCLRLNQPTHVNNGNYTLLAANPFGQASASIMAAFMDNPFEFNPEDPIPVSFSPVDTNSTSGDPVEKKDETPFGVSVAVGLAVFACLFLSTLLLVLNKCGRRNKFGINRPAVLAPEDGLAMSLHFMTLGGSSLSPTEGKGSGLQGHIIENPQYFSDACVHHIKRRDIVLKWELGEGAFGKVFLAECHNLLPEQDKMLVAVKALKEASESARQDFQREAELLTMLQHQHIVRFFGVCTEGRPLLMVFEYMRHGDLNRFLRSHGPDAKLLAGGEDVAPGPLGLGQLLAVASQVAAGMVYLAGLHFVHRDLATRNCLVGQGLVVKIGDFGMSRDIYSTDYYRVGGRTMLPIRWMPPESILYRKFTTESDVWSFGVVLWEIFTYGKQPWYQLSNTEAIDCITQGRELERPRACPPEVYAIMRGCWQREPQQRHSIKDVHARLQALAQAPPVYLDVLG

CNC(=O)c1ccc(-c2cc(OC3CCOCC3)c3c(C)n[nH]c3c2)cc1N1CCN(CC(F)(F)F)CC1 [Example 143, N-methyl-4-[3-methyl-4-(tetrahydro-2H-pyran-4-yloxy)-1H-indazol-6-yl]-2-[4-(2,2,2-trifluoroethyl)piperazin-1-yl]benzamide]
IC50: 0.0958 µM

CC(Oc1cc(-c2ccc(C(N)=O)c(N3CCN(CCN4CCOCC4)CC3)c2)cc2[nH]nc(N)c12)C(F)(F)F (centres unmarked) [Example 95, 4-{3-amino-4-[(1,1,1-trifluoropropan-2-yl)oxy]-1H-indazol-6-yl}-2-{4-[2-(morpholin-4-yl)ethyl]piperazin-1-yl}benzamide]
IC50: 0.0898 µM

NC(=O)c1ccc(-c2cc(OC3CCOCC3)c3c(N)n[nH]c3c2)cc1N1CCN(CCc2ccccn2)CC1 [Example 10, 4-[3-amino-4-(tetrahydro-2H-pyran-4-yloxy)-1H-indazol-6-yl]-2-{4-[2-(pyridin-2-yl)ethyl]piperazin-1-yl}benzamide]
IC50: 0.136 µM

CNC(=O)c1ccc(-c2cc(OC3CCCC3)c3c(C)n[nH]c3c2)cc1N1CCN(C2CCCCC2)CC1 [Example 121, 2-(4-cyclohexylpiperazin-1-yl)-4-[4-(cyclopentyloxy)-3-methyl-1H-indazol-6-yl]-N-methylbenzamide]
IC50: 0.0173 µM

CNC(=O)c1ccc(-c2cc(OC3CCOCC3)c3c(N)n[nH]c3c2)cc1N1CCN(CC(F)(F)C(F)(F)F)CC1 [Example 170, 4-[3-amino-4-(tetrahydro-2H-pyran-4-yloxy)-1H-indazol-6-yl]-N-methyl-2-[4-(2,2,3,3,3-pentafluoropropyl)piperazin-1-yl]benzamide]
IC50: 0.0178 µM

NC(=O)c1ccc(-c2cc(OC3CCCC3)c3c(N)n[nH]c3c2)cc1N1CCN(C(=O)c2ccccc2)CC1 [Example 80, 4-[3-amino-4-(cyclopentyloxy)-1H-indazol-6-yl]-2-(4-benzoylpiperazin-1-yl)benzamide]
IC50: 0.0175 µM

CNC(=O)c1ccc(-c2cc(OC3CCOCC3)c3c(C)n[nH]c3c2)cc1N1CCN(C(=O)CC(C)C)CC1 [Example 160, N-methyl-2-[4-(3-methylbutanoyl)piperazin-1-yl]-4-[3-methyl-4-(tetrahydro-2H-pyran-4-yloxy)-1H-indazol-6-yl]benzamide]
IC50: 0.0593 µM

CNC(=O)c1ccc(-c2cc(O[C@H](C)C(F)(F)F)c3c(N)n[nH]c3c2)cc1N1CCC(C2CCCCC2)CC1 [Example 61, 4-(3-amino-4-{[(2R)-1,1,1-trifluoropropan-2-yl]oxy}-1H-indazol-6-yl)-2-(4-cyclohexylpiperidin-1-yl)-N-methylbenzamide]
IC50: 0.135 µM

NC(=O)c1ccc(-c2cc(OC3CCCC3)c3c(N)n[nH]c3c2)cc1N1CCN(C2CC2)CC1 [Example 78, 4-[3-amino-4-(cyclopentyloxy)-1H-indazol-6-yl]-2-(4-cyclopropylpiperazin-1-yl)benzamide]
IC50: 0.0201 µM

NC(=O)c1ccc(-c2cc(OC3CCNCC3)c3c(N)n[nH]c3c2)cc1N1CCN(c2ccccc2)CC1 [Example 63, 4-[3-amino-4-(piperidin-4-yloxy)-1H-indazol-6-yl]-2-(4-phenylpiperazin-1-yl)benzamide]
IC50: 0.0253 µM

CNC(=O)c1ccc(-c2cc(OC(C)C(F)(F)F)c3c(N)n[nH]c3c2)cc1N1CCN(c2cccnc2)CC1 (centres unmarked) [Example 36, 4-{3-amino-4-[(1,1,1-trifluoropropan-2-yl)oxy]-1H-indazol-6-yl}-N-methyl-2-[4-(pyridin-3-yl)piperazin-1-yl]benzamide]
IC50: 0.0258 µM

NC(=O)c1ccc(-c2cc(O[C@@H]3CCOC3)c3c(N)n[nH]c3c2)cc1N1CCN(c2cccnc2)CC1 [Example 68, 4-{3-amino-4-[(3R)-tetrahydrofuran-3-yloxy]-1H-indazol-6-yl}-2-[4-(pyridin-3-yl)piperazin-1-yl]benzamide]
IC50: 0.00806 µM

CC(=O)c1ccc(-c2cc(OC3CCOCC3)c3c(N)n[nH]c3c2)cc1N1CCN(c2ncccn2)CC1 [Example 15, 1-{4-[3-amino-4-(tetrahydro-2H-pyran-4-yloxy)-1H-indazol-6-yl]-2-[4-(pyrimidin-2-yl)piperazin-1-yl]phenyl}ethanone]
IC50: 0.00959 µM

CC(=O)c1ccc(-c2cc(OC3CCOCC3)c3c(N)n[nH]c3c2)cc1N1CCN(C(=O)C2CC2)CC1 [Example 20, 1-{4-[3-amino-4-(tetrahydro-2H-pyran-4-yloxy)-1H-indazol-6-yl]-2-[4-(cyclopropylcarbonyl)piperazin-1-yl]phenyl}ethanone]
IC50: 0.101 µM

CNC(=O)c1ccc(-c2cc(OC3CCOCC3)c3c(N)n[nH]c3c2)cc1N1CCN(CC(C)(F)F)CC1 [Example 172, 4-[3-amino-4-(tetrahydro-2H-pyran-4-yloxy)-1H-indazol-6-yl]-2-[4-(2,2-difluoropropyl)piperazin-1-yl]-N-methylbenzamide]
IC50: 0.022 µM

CNC(=O)c1ccc(-c2cc(OC3CCCC3)c3c(C)n[nH]c3c2)cc1N1CCN(C(=O)OCC(C)C)CC1 [Example 128, isobutyl 4-{5-[4-(cyclopentyloxy)-3-methyl-1H-indazol-6-yl]-2-(methylcarbamoyl)phenyl}piperazine-1-carboxylate]
IC50: 0.214 µM

CNC(=O)c1ccc(-c2cc(O[C@H](C)C(F)(F)F)c3c(N)n[nH]c3c2)cc1N1CCN2CCCCC2C1 (stereo partly drawn) [Example 57, 4-(3-amino-4-{[(2R)-1,1,1-trifluoropropan-2-yl]oxy}-1H-indazol-6-yl)-N-methyl-2-(octahydro-2H-pyrido[1,2-a]pyrazin-2-yl)benzamide]
IC50: 6.32 µM

NC(=O)c1ccc(-c2cc(OC3CCCC3)c3c(N)n[nH]c3c2)cc1N1CCN(C(=O)C2CC2)CC1 [Example 81, 4-[3-amino-4-(cyclopentyloxy)-1H-indazol-6-yl]-2-[4-(cyclopropylcarbonyl)piperazin-1-yl]benzamide]
IC50: 0.0174 µM

CNC(=O)c1ccc(-c2cc(O[C@H](C)C(F)(F)F)c3c(N)n[nH]c3c2)cc1N1CCN(c2cccnc2)CC1 [Example 49, 4-(3-amino-4-{[(2R)-1,1,1-trifluoropropan-2-yl]oxy}-1H-indazol-6-yl)-N-methyl-2-[4-(pyridin-3-yl)piperazin-1-yl]benzamide]
IC50: 0.141 µM

NC(=O)c1ccc(-c2cc(OC3CCCC3)c3c(N)n[nH]c3c2)cc1N1CCN(C(=O)N2CCOCC2)CC1 [Example 82, 4-[3-amino-4-(cyclopentyloxy)-1H-indazol-6-yl]-2-[4-(morpholin-4-ylcarbonyl)piperazin-1-yl]benzamide]
IC50: 0.0223 µM

CC(Oc1cc(-c2ccc(C(N)=O)c(N3CCN(C4CCCCC4)CC3)c2)cc2[nH]nc(N)c12)C(F)(F)F (centres unmarked) [Example 93, 4-{3-amino-4-[(1,1,1-trifluoropropan-2-yl)oxy]-1H-indazol-6-yl}-2-(4-cyclohexylpiperazin-1-yl)benzamide]
IC50: 0.027 µM

CNC(=O)c1ccc(-c2cc(OC3CCOCC3)c3c(C)n[nH]c3c2)cc1N1CCN(Cc2cccc(F)c2)CC1 [Example 154, 2-[4-(3-fluorobenzyl)piperazin-1-yl]-N-methyl-4-[3-methyl-4-(tetrahydro-2H-pyran-4-yloxy)-1H-indazol-6-yl]benzamide]
IC50: 0.0159 µM

CNC(=O)c1ccc(-c2cc(O[C@@H](C)C(F)(F)F)c3c(N)n[nH]c3c2)cc1N1CCN(C2CCC2)CC1 [Example 42, 4-(3-amino-4-{[(2S)-1,1,1-trifluoropropan-2-yl]oxy}-1H-indazol-6-yl)-2-(4-cyclobutylpiperazin-1-yl)-N-methylbenzamide]
IC50: 0.422 µM

CC(=O)c1ccc(-c2cc(OC3CCOCC3)c3c(N)n[nH]c3c2)cc1N1CCN(C2CC2)CC1 [Example 14, 1-{4-[3-amino-4-(tetrahydro-2H-pyran-4-yloxy)-1H-indazol-6-yl]-2-(4-cyclopropylpiperazin-1-yl)phenyl}ethanone]
IC50: 0.11 µM

NC(=O)c1ccc(-c2ccc3c(N)n[nH]c3c2)cc1N1CCN(C2CC2)CC1 [Example 88, 4-(3-amino-1H-indazol-6-yl)-2-(4-cyclopropylpiperazin-1-yl)benzamide]
IC50: 8.44 µM

CNC(=O)c1ccc(-c2cc(OC3CCOCC3)c3c(N)n[nH]c3c2)cc1N1CCN(CCC(F)(F)F)CC1 [Example 168, 4-[3-amino-4-(tetrahydro-2H-pyran-4-yloxy)-1H-indazol-6-yl]-N-methyl-2-[4-(3,3,3-trifluoropropyl)piperazin-1-yl]benzamide]
IC50: 0.0116 µM
